In patent publication US20190240292A1, “METHODS OF ADMINISTERING HEPCIDIN” (priority 2016, published 2019):

Columns and labels:
[1] = tested on: transferrin saturation (TSAT); test: Transferrin saturation (TSAT) in patients after hepcidin (Example 6); format: in vivo, human; conditions: for Transferrin saturation - percent change from baseline: eight days post administration
Protocol: Transferrin saturation (TSAT) was measured in patients described in Example 1. TSAT indicates the percent of iron-binding sites of transferrin that are occupied by iron, making TSAT an important tool in diagnosis and monitoring of blood disorders and disease. A one milligram bolus of hepcidin was administered to sickle cell disease patients 1001 and 1002 and hereditary hemochromatosis patient 1003, while patients 2001 and 2002 were administered 5 mg of hepcidin each. TSAT levels were measured eight days post hepcidin administration.

[2] = Expanded acute study (NOAEL), single subcutaneous dose of hepcidin in dogs (Example 4); format: in vivo; conditions: for dose at which mixed cell infiltration in the administration site was found (microscopic): males and females
Protocol: Increased thickness in the administration site was observed on Day 4 at 50 mg/kg and on Day 15 at ≥25 mg/kg. Microscopic findings on Day 4 consisted of mixed cell infiltration in the administration site in males and females at ≥25 mg/kg, while on Day 15, microscopic findings at the administration site included mixed cell infiltration in males and females at ≥5 mg/kg, fibrosis in males at ≥25 mg/kg and in females at ≥5 mg/kg, and cystic space in males at 50 mg/kg and in females at ≥25 mg/kg.

serum iron levels [3] = test: Subcutaneous hepcidin 50, 100, 200 μg, effect on serum iron levels in mice (Example 2); format: in vivo; conditions: for serum iron levels compared to vehicle: p<0.01
Protocol: A study was designed to evaluate doses of 50, 100, and 200 μg of hepcidin delivered subcutaneously and their effect on serum iron levels in mice (n=7/group). […] Conversely, 50 μg and 100 μg doses were elevated (p<0.01) compared to the vehicle at 24 hours post dose. The elevated levels of serum iron could be due to the system's reaction to the clearance of hepcidin. […] Mortality was likely related to the stress of the blood collection. Serum iron levels normalized 72 hours post dose.

[4] = based on animal data
serum iron concentration = test: Serum iron levels in patients after hepcidin (Example 7); format: in vivo, human
Protocol: Serum iron levels were measured in six patients with sickle cell disease patients and hereditary hemochromatosis patients post administration of hepcidin. Serum iron levels were measured prior to hepcidin administration (baseline) as well as post hepcidin administration at 2 hours, 4 hours, 8 hours, 24 hours, 48 hours, and […]. Patients were divided into two cohorts, cohort 1 was administered 1 mg of hepcidin and cohort 2 was administered 5 mg of hepcidin. Cohort 1 comprised sickle cell patients 1001 and 1002 as well as hereditary hemochromatosis patient 1003, while cohort 2 comprised hereditary hemochromatosis patients 2001, 2002, and 2004. Percent change of serum iron concentration for individual patients and average percent changes for both cohorts are shown in FIGS. 6 and 7. On average, hepcidin administration decreased serum iron concentration over an 8 day period by 35-40% in both cohorts.

serum ferritin = test: Serum ferritin in sickle cell disease and hereditary hemochromatosis patients after hepcidin (Example 5); format: in vivo, human; conditions: 8 days post administration
Protocol: Hepcidin administration lowered ferritin blood levels in sickle cell patients with high baseline ferritin. A 1 milligram bolus of hepcidin was administered subcutaneously to two male patients with sickle cell disease (patients 1001 and 1002). Serum ferritin concentrations were measured at baseline as well as eight days post administration of hepcidin. Ferritin blood levels were lower 8 days post hepcidin administration in both patients (FIG. 1). Percent changes in ferritin blood levels for patients 1001 and 1002 were −45% and −61%, respectively (FIG. 3).
Hepcidin was administered to three hereditary hemochromatosis patients with normal baseline serum ferritin concentrations. Hereditary hemochromatosis patient 1003 was administered 1 mg of hepcidin, while two other patients (2001 and 2002) were administered 5 mg of hepcidin. Ferritin blood levels were measured in all patients eight days post hepcidin administration (FIG. 2). Percent change in ferritin blood levels among patients 1003, 2001, and 2002 were 25%, −19%, and 18%, respectively (FIG. 3).

serum iron levels [5] = test: Subcutaneous hepcidin 1, 5, 10, 50 mg, effect on serum iron levels in normal rats (Example 3); format: in vivo
Protocol: A study was designed to evaluate doses of 1, 5, 10, and 50 mg of hepcidin delivered subcutaneously and their effect on serum iron levels in normal rats (n=7/group). […] Tmax and Cmax were reached between 1 and 2 hours post dose for all dose groups, but the uptake between the high and mid dose were very similar at these time points. […] In the 5 mg dose, serum iron levels returned to pre-dose levels at 48 hours post dose.

[6] = Expanded acute study (NOAEL), hepcidin SC in Sprague Dawley rats (Example 4)
Protocol: A study was designed to evaluate doses of 5, 25, and 50 mg/kg of hepcidin (human equivalent dose of 0.8, 4, 8 mg/kg, respectively), delivered SC to Sprague Dawley rats (n=9/sex/group).

serum iron levels [7] = test: Subcutaneous hepcidin, effect on serum iron levels in mice (Example 1); format: in vivo; conditions: 50 μg subcutaneous, p<0.05
Text: A study was designed to evaluate the effect of subcutaneous doses of hepcidin on serum iron levels in mice (n=6-7/group).

[8] = patient 1001, sickle cell disease, 1 mg
[9] = patient 1002, sickle cell disease, 1 mg
[10] = patient 1003, hereditary hemochromatosis, 1 mg
[11] = patient 2001, hereditary hemochromatosis, 5 mg
[12] = patient 2002, hereditary hemochromatosis, 5 mg
[13] = Sprague Dawley rats, 5, 25 and 50 mg/kg SC

## CC[C@H](C)[C@@H]1NC(=O)[C@@H](NC(=O)[C@@H](NC(=O)[C@@H]2CCCN2C(=O)[C@H](Cc2ccccc2)NC(=O)[C@H](Cc2c[nH]cn2)NC(=O)[C@@H](NC(=O)[C@@H](N)CC(=O)O)[C@@H](C)O)[C@@H](C)CC)CSSC[C@@H](C(=O)N[C@@H](CCCCN)C(=O)N[C@H](C(=O)O)[C@@H](C)O)NC(=O)[C@@H]2CSSC[C@@H]3NC(=O)[C@@H]4CSSC[C@H](NC(=O)[C@H](Cc5ccccc5)NC1=O)C(=O)N[C@@H](CSSC[C@H](NC(=O)[C@H](CCCCN)NC(=O)[C@H](CO)NC(=O)[C@H](CCCNC(=N)N)NC(=O)[C@H](Cc1c[nH]cn1)NC3=O)C(=O)NCC(=O)N[C@@H](CCSC)C(=O)N2)C(=O)NCC(=O)N4 [hepcidin]
[1]; all patients (1001, 1002, 1003 at 1 mg; 2001, 2002 at 5 mg)
  TSAT at day eight versus baseline: percent decrease
[1]; [8]
  Transferrin saturation - percent change from baseline: −19%
[1]; [9]
  Transferrin saturation - percent change from baseline: −62%
[1]; [10]
  Transferrin saturation - percent change from baseline: −27%
[1]; [11]
  Transferrin saturation - percent change from baseline: −26%
[1]; [12]
  Transferrin saturation - percent change from baseline: −40%
[2]; both sexes, dog, in vivo, sc, dogs, single subcutaneous dose
  NOAEL at 15 Day: 5 mg/kg/day
[2]; dogs, 5, 25 and 50 mg/kg single subcutaneous dose
  other adverse reactions: hunched posture, soft feces, gross pathology finding of “thick,” and subcutaneous fibrosis, mixed cell infiltration, and cysts present at recovery period
[2]; dogs, Day 4
  dose at which increased thickness in the administration site was observed: 50 mg/kg
  dose at which mixed cell infiltration in the administration site was found (microscopic): ≥ 25 mg/kg
[2]; dogs, Day 15
  dose at which increased thickness in the administration site was observed: ≥ 25 mg/kg
  dose at which mixed cell infiltration in the administration site was found (microscopic): ≥ 5 mg/kg
[2]; dogs, females, Day 15
  dose at which cystic space at the administration site was found (microscopic): ≥ 25 mg/kg
  dose at which fibrosis at the administration site was found (microscopic): ≥ 5 mg/kg
[2]; dogs, males, Day 15
  dose at which cystic space at the administration site was found (microscopic): 50 mg/kg
  dose at which fibrosis at the administration site was found (microscopic): ≥ 25 mg/kg
[2]; dogs, up to Day 4, ≥25 mg/kg/day dose groups, not considered serious
  neutrophils and fibrinogen levels: temporary increases
Serum iron levels [3]; mice, 50 μg and 100 μg subcutaneous, 24 hours post dose
  serum iron levels compared to vehicle: elevated
Serum iron levels [3]; mice, 50, 100 and 200 μg subcutaneous, 4 hours post dose
  serum iron levels compared to vehicle: significant decrease
Serum iron levels [3]; mice, subcutaneous
  time post dose at which serum iron levels normalized: 72 h
Serum iron levels [3]; mice, following the 4-hour blood collection, likely related to stress of blood collection
  mortality: One mouse died
[4]
  dose that may cause adverse effects in humans: about 200 mg
Serum iron concentration; both cohorts (cohort 1: 1 mg; cohort 2: 5 mg)
  average decrease of serum iron concentration over an 8 day period: 35-40%
Serum iron concentration; doses of 1 mg and 5 mg hepcidin
  efficacy in human subjects: display efficacy
Serum iron concentration; [8]
  Serum iron concentration, maximum observed percentage change from baseline: −6%
  Serum iron concentration, percentage change from baseline 8 days after administration of hepcidin: −4%
Serum iron concentration; [9]
  Serum iron concentration, maximum observed percentage change from baseline: −69%
  Serum iron concentration, percentage change from baseline 8 days after administration of hepcidin: −69%
Serum iron concentration; [10]
  Serum iron concentration, maximum observed percentage change from baseline: −37%
  Serum iron concentration, percentage change from baseline 8 days after administration of hepcidin: −37%
Serum iron concentration; [11]
  Serum iron concentration, maximum observed percentage change from baseline: −53%
  Serum iron concentration, percentage change from baseline 8 days after administration of hepcidin: −40%
Serum iron concentration; [12]
  Serum iron concentration, maximum observed percentage change from baseline: −24%
  Serum iron concentration, percentage change from baseline 8 days after administration of hepcidin: −24%
Serum iron concentration; patient 2004, hereditary hemochromatosis, 5 mg
  Serum iron concentration, maximum observed percentage change from baseline: −35%
Serum ferritin; patient 1001, sickle cell disease, 1 mg subcutaneous bolus
  percent change in ferritin blood levels: −45%
Serum ferritin; patient 1002, sickle cell disease, 1 mg subcutaneous bolus
  percent change in ferritin blood levels: −61%
Serum ferritin; patient 1003, hereditary hemochromatosis, normal baseline ferritin, 1 mg
  percent change in ferritin blood levels: 25%
Serum ferritin; patient 2001, hereditary hemochromatosis, normal baseline ferritin, 5 mg
  percent change in ferritin blood levels: −19%
Serum ferritin; patient 2002, hereditary hemochromatosis, normal baseline ferritin, 5 mg
  percent change in ferritin blood levels: 18%
Serum ferritin; sickle cell disease patients 1001 and 1002 (high baseline ferritin), 1 mg subcutaneous bolus
  ferritin blood levels versus baseline: lower
Serum iron levels [5]; 5 mg subcutaneous
  time post dose at which serum iron levels returned to pre-dose levels: 48 h
Serum iron levels [5]; 10 mg and 50 mg subcutaneous, 72 hours post dose
  return of serum iron levels to pre-dose levels: did not return to pre-dose levels
Serum iron levels [5]; 50 mg subcutaneous
  effect on serum iron levels at 72 hours: still demonstrated an effect
Serum iron levels [5]; subcutaneous, all dose levels (1, 5, 10, 50 mg)
  serum iron levels: significant decrease
Serum iron levels [5]; subcutaneous, all three doses
  time post dose of lowest serum iron concentrations: 4 h
Serum iron levels [5]; subcutaneous, any dose level
  lethargy: No lethargy was observed
[6]; [13]
  adverse effects: No unexpected adverse effects were observed
  food consumption and body weight gain: non-adverse, dose-independent, reductions
  injection site finding: induration
  reticulocytes and iron concentration: dose-dependent reversible decreases
  unsaturated iron binding capacity: increased
[6]; Sprague Dawley rats, 5, 25 and 50 mg/kg SC, all doses
  average serum iron levels compared to vehicle and pre-dose levels: significantly decreased
[6]; Sprague Dawley rats, 5, 25 and 50 mg/kg SC, all three doses
  time post dose of lowest serum iron level: 4 h
[6]; both, Sprague Dawley, rat, in vivo, sc
  NOAEL: 50 mg/kg/day
Serum iron levels [7]; 4 hours post dose
  decrease in serum iron levels compared to vehicle (average): 40%
Serum iron levels [7]; 24 hours post dose
  decrease in serum iron levels compared to vehicle (average): 15%
